Measurements as given in patent US20220409578A1, “FUNCTIONALIZED 1,3-BENZENE DIOLS AND THEIR METHOD OF USE FOR THE TREATMENT OF RADIATION DERMATITIS AND OTHER SKIN DISORDERS” (KANNALIFE SCIENCES, INC., priority 2019, published 2022).

Test system: TNFα
Assay: TNFα release from UV-B irradiated human epidermal keratinocytes (ELISA)
Format: cell-based
Settings: Keratinocyte, light or radiation study, UV-B 25 mJ/cm^2 (280-312 nm), read-out: IC50 of TNFα inhibition
Method: Normal human epidermal keratinocytes cultures were utilized to measure the release of proinflammatory cytokines and chemokines. Primary epidermal keratinocytes from neonatal donors were used from human origin and purchased from Thermo-Fisher (Cat No. A13401). […] Cells were cultured until the second passage and then acclimated for 48 hours more before UV-B irradiation. Dosing procedures and cell groups were identified using appropriate cell culture 24-well plates. The cell culture incubator was set at 5% v/v CO2 with temperature and humidity maintained at 36-38° C. and 40-70%, respectively. The test and control substances were administered to HKGS-depleted medium in triplicates. A fixed 5 μL/well from 100× stock dose volume was administered to 500 μL of media to each cell culture well on Day 3 and pre-incubated for 6 hours and then post-UVB incubated for 18 hours. […] Media supernatants were harvested and analyzed for TNFα and IL-1β levels by ELISA method. Cytokine levels were assessed from cell culture media supernatants using BD Biosciences OptEIA™ Human TNFα (Cat. No. 555212) and IL-1β (Cat. No. 557953) and ELISA set kit and Reagent Set B (Cat. No. 550534) according the manufacture's specifications. Absorbance was measured at 450 nm using a plate reader and calculated cytokine levels were determined from a standard curve.

C=C(C)[C@@H]1CCC(C)=C[C@H]1c1c(O)cc(CC2CN(C(=O)OCC)C2)cc1O [KLS-13022, ethyl 3-(3,5-dihydroxy-4-((1R,6R)-3-methyl-6-(prop-1-en-2-yl)cyclohex-2-enyl)benzyl)azetidine-1-carboxylate]
IC50: 380 nM
